Assay: Thymol solubility / dispersion in deionized water
Format: physicochemical
Details: suspended at […] in deionized water

Appearance of suspension: showed insoluble particulates
SMILES: Cc1ccc(C(C)C)c(O)c1 [thymol, 2-Isopropyl-5-methylphenol]
